Where two headings read alike, the source gives them in different places. [ ]: non-standard residue; d: D form. mDAP = meso-diaminopimelic acid
Experiments:
Csd6 [1] = assay: Crystal structure of D-Ala-bound Csd6; assay type: binding, Helicobacter pylori 26695; conditions: native crystal preincubated 2 min with 96 mM D-Ala; 2.04 Å, PDB 4Y4V
Protocol: Native crystals of ligand-free Csd6 were grown at 23 °C by the sitting-drop vapor diffusion method. Sitting drops were prepared by mixing 0.5 μl of the protein solution, 0.1 μl of a 10-fold diluted microseed crystal solution, and 0.4 μl of the reservoir solution (1.5% (v/v) Tacsimate, pH 7.0, 22% (w/v) PEG 3,350, and 100 mM sodium-HEPES, pH 7.5). The microseed crystals were originally obtained with ligand-free Csd6 using the above reservoir solution. The crystals grew to approximate dimensions of 0.2 × 0.1 × 0.05 mm within a few days. X-ray diffraction data for the ligand-free Csd6 (Csd6-unbound) were collected at 100 K using a cryoprotectant solution containing 20% (v/v) glycerol added to the reservoir solution (Table 1). X-ray diffraction data for the D-Ala-bound Csd6 (Csd6-Ala) were collected at 100 K after the native crystal was preincubated for 2 min in a cryoprotectant solution containing both 20% (v/v) glycerol and 96 mM D-Ala, which were added to the reservoir solution (Table 1). The structures of both Csd6-unbound and Csd6-Ala were determined by molecular replacement with the program MolRep ([47]) using the refined model of EMTS-derivatized Csd6. Stereochemistry of the refined models was evaluated using MolProbity ([48]).

H. pylori Csd6 = H. pylori Csd6 (Helicobacter pylori, UniProt O25255); assay: SPR kinetics and affinity on immobilized Csd6; assay type: binding, Helicobacter pylori 26695; conditions: for kon: read-out: association rate constant ka; for koff: read-out: dissociation rate constant kd
Protocol: The kinetics and affinity of Csd6 with the synthetic muramyl tetrapeptide and muramyl tripeptide (β-methyl N-acetylmuramic acid-L-Ala^1-γ-D-Glu^2-mDAP^3) as a reaction product were assessed using a Reichert SR7500 surface plasmon resonance (SPR) dual channel instrument (Reichert, Depew, NY). Purified Csd6 in 20 mM sodium acetate, pH 5.5, was immobilized using the standard amino coupling at 20 μl min^−1 on a carboxymethyl dextran hydrogel surface sensor chip (Reichert, Depew, NY) until saturation was achieved. The running buffer B used in all SPR experiments was 20 mM HEPES, pH 7.9, and 150 mM sodium chloride. SPR experiments were performed at 25 °C. The muramyl tetrapeptide or muramyl tripeptide at concentrations of 15.6, 31.3, 62.5, 125, 250, and 500 μM was injected over the Csd6-chip at 30 μl min^−1 for 5 min for association analyses. Subsequently, the running buffer was flowed over the chip for an additional 6 min (30 μl min^−1) for dissociation analyses. Regeneration of the chip was carried out using 20 mM sodium hydroxide. Binding was detected as a change in the refractive index at the surface of the chip as measured by the response unit. A reference flow cell was used to record the response by bovine serum albumin (BSA) as a […], and the response by BSA was subtracted from each sample. SPR data were fit using the Scrubber2 software.
FIGURE 5.

Csd6 [2] = assay type: biochemical, Helicobacter pylori 26695; conditions: analyte 5 mM, Csd6 5 μM, 2 h, 37 °C; 20 mM sodium phosphate, pH 6.0, 150 mM sodium chloride; MALDI-QIT-TOF MS
LdtMt2 = conditions: positive control for L,D-TPase activity; recombinant LdtMt2 (Ala-55–Ala-408); MALDI-QIT-TOF MS
[3] = target: the molecule itself; assay: AUC; equilibrium sedimentation; 20 mM Tris-HCl pH 7.9, 150 mM NaCl, 1.5 mM TCEP, 20 °C; 16,000 and 20,000 rpm; Csd6 monomer concentrations 2.74, 3.65 and 4.56 μM
[4] = assay type: biochemical; conditions: muramyl tetrapeptide
[5] = recombinant hexahistidine-tagged Csd6; cited from earlier work
Excerpt: In many bacteria, including H. pylori, the peptidoglycan layer is remodeled by a number of cell-wall hydrolases as well as synthetases for the peptidoglycan maturation, regulation of cell-wall growth, cell division, peptidoglycan turnover and recycling, cell lysis, and the release of peptidoglycan fragments for host-pathogen interactions ([18]). In H. pylori, an amidase AmiA ([19]), peptidases Csd1–4, potential regulators Csd5 and CcmA ([20][–][22]), and another peptidase Csd6 ([23]) are required to tailor the peptidoglycan layer to generate the helical cell shape. We have recently reported th ...

[6] = SPR, Reichert SR7500, Csd6 immobilized by amine coupling, 20 mM HEPES, pH 7.9, 150 mM sodium chloride, 25 °C, analyte 15.6-500 μM, Scrubber2 fit, read-out: KD
[7] = muramyl tripeptide vs muramyl tetrapeptide, SPR, Csd6

Molecule: C[C@@H](N)C(=O)O [D-Ala]
- binding in crystal structure (in words) (Csd6 [1]): two D-Ala molecules are well ensconced within the active site of monomer A with clear electron density
- Kd (H. pylori Csd6): 224 µM
- kon (H. pylori Csd6): 1.05 M⁻¹ s⁻¹
- koff (H. pylori Csd6): 0.00023 s⁻¹

Molecule: N[C@H](CCC[C@H](N)C(=O)O)C(=O)O [mDAP, meso-2,6-diaminopimelate]
- Kd (H. pylori Csd6): 94 µM
- kon (H. pylori Csd6): 1.49 M⁻¹ s⁻¹
- koff (H. pylori Csd6): 0.00014 s⁻¹

Molecule: β-methyl N-acetylmuramic acid-L-Ala^1-γ-D-Glu^2-mDAP^3 [muramyl tripeptide]
- Kd (H. pylori Csd6; [6]): 510 µM
- ka relative to that for the muramyl tetrapeptide (H. pylori Csd6; [7]): roughly 3 ×
- kd relative to that for the muramyl tetrapeptide (H. pylori Csd6; [7]): ~50 ×

Molecule: β-methyl N-acetylmuramic acid-L-Ala^1-γ-D-Glu^2-mDAP^3-D-Ala^4 ({β‑methyl N‑acetylmuramic acid}-AE[mDAP][dA]-OH; not fully specified (residue 2)) [muramyl tetrapeptide]
- Kd (H. pylori Csd6; [6]): 27 µM

Molecule: β-methyl N-acetylmuramic acid-L-Ala^1-γ-D-Glu^2-mDAP^3-D-Ala^4 [muramyl tetrapeptide]
- reaction product upon incubation with Csd6 (Csd6 [2]): the muramyl tripeptide was detected as the sole reaction product of trimming without any dimeric cross-linked species
- reaction product upon incubation with LdtMt2 (LdtMt2): not only the muramyl tripeptide (Tri in Fig. 1C) but also the dimeric cross-linked species (Tetra-Tri in Fig. 1C) were detected as the reaction products

Molecule: β-methyl N-acetylmuramic acid-L-Ala^1-γ-D-Glu^2-mDAP^3-D-Ala^4-D-Ala^5 [muramyl pentapeptide]
- reaction product upon incubation with Csd6 (Csd6 [2]): no reaction product could be detected

B1: Helicobacter pylori Csd6 (HP0518), residues Val-13–Lys-330 (enzyme, Helicobacter pylori 26695, UniProt O25255 13-330, looked up)
chain: VGLNASDRLLEIMRLYQKQGLEMVGQKLDSYLADKSFWAEELQNKDTDFGYYQNKQFLFVANKSKPSLEFYEIENNMLKKINSSKALVGSKKGDKTLEGDLATPIGVYRITQKLERLDQYYGVLAFVTNYPNLYDTLKKRTGHGIWVHGMPLNGDRNELNTKGCIAIENPLLSSYDKVLKGEKAFLITYEDKFFPSTKEELSMILSSLFQWKEAWARGDFERYMRFYNPNFTRYDGMKFNAFKEYKKRVFAKNEKKNIAFSSINVIPYPNSQNKRLFYVVFDQDYKAYQHNKLSYSSNSQKELYIEIENNQVSIIMEK
notes: Csd6 (HP0518), L,D-carboxypeptidase of Helicobacter pylori strain 26695, residues Val-13–Lys-330 of the gene product; In the Csd6-Ala crystal, Cys-176 of monomer A is oxidised to sulfenic acid; also called Csd6(13–330); recombinant Csd6; source: E. coli Rosetta2(DE3)pLysS, purified (HiTrap Chelating HP, Superdex 200)
- stoichiometry N [3]: 2

B2: Csd6: recombinant H. pylori 26695 Csd6 protein, residues Val-13–Lys-330, with N-terminal His6-containing tag (protein)
chain: B1 chain
modifications: left off: His6-containing tag, N-terminal, state not stated
notes: recombinant H. pylori 26695 Csd6 protein, residues Val-13–Lys-330, with N-terminal His6-containing tag
- L,D-carboxypeptidation activity upon EDTA treatment (in words) [4]: no change upon EDTA treatment
- conversion of monomeric tetrapeptides [5]: complete conversion of the monomeric tetrapeptides to tripeptides
